Measurements taken from US10544106B2, “Certain chemical entities, compositions, and methods” (NeuPharma, Inc., priority 2016, dated 2020).

Biological target: BTK (Homo sapiens (Human), UniProt Q06187)
Assay: Z'-LYTE kinase inhibition assay against BTK
Assay type: biochemical
Conditions: for IC50: series of concentrations, GraphPad Prism 5
Method: Inhibitory activities of compounds against BTK, EGFR T790M, EGFR L858R, and EGFR L858R/T790M were measured using Z′-LYTE® Method from Life Technologies as briefly described in the following.
Test Compounds are screened in 1% DMSO (final) in the well. For 10 point titrations, 3-fold serial dilutions are conducted from the starting concentration. All ATP Solutions are diluted to a 4× working concentration in Kinase Buffer (50 mM HEPES pH 7.5, 0.01% BRIJ-35, 10 mM MgCl2, 1 mM EGTA). Peptide/Kinase Mixtures are diluted to a 2× working concentration in the appropriate Kinase Buffers as described below. • (i) Peptide/Kinase Mixtures for measurement of EGFR (ErbB1) L858R: • The 2×EGFR (ErbB1) L858R/Tyr 04 mixture is prepared in 50 mM HEPES pH 7.5, 0.01% BRIJ-35, 10 mM MgCl2, 4 mM MnCl2. 1 mM EGTA, 2 mM DTT. The final 10 μL Kinase Reaction consists of 0.2-1.68 ng EGFR (ErbB1) L858R and 2 μM Tyr 04 in 50 mM HEPES pH 7.5, 0.01% BRIJ-35, 10 mM MgCl2, 2 mM MnCl2, 1 mM EGTA, 1 mM DTT. After the 1 hour Kinase Reaction incubation, 5 μL of a 1:64 dilution of Development Reagent B is added. • (ii) Peptide/Kinase Mixtures for measurement of EGFR (ErbB1) T790M: The 2×EGFR (ErbB1) T790M/Tyr 04 mixture is prepared in 50 mM HEPES pH 6.5, 0.01% BRIJ-35, 10 mM MgCl2, 1 mM EGTA, 0.02% NaN3. The final 10 μL Kinase Reaction consists of 3.9-30.2 ng EGFR (ErbB1) T790M and 2 μM Tyr 04 in 50 mM HEPES pH 7.0, 0.01% BRIJ-35, 10 mM MgCl2, 1 mM EGTA, 0.01% NaN3. After the 1 hour Kinase Reaction incubation, 5 μL of a 1:64 dilution of Development Reagent B is added. • (iii) Peptide/Kinase Mixtures for measurement of EGFR (ErbB1) L858R/T790M: The 2×EGFR (ErbB1) T790M L858R/Tyr 04 mixture is prepared in 50 mM HEPES pH 6.5, 0.01% BRIJ-35, 10 mM MgCl2, 1 mM EGTA, 0.02% NaN3. The final 10 μL Kinase Reaction consists of 0.38-4.22 ng EGFR (ErbB1) T790M L858R and 2 μM Tyr 04 in 50 mM HEPES pH 7.0, 0.01% BRIJ-35, 10 mM MgCl2, 1 mM EGTA, 0.01% NaN3. After the 1 hour Kinase Reaction incubation, 5 μL of a 1:64 dilution of Development Reagent B is added. • (iv) Peptide/Kinase Mixtures for measurement of BTK: The 2×BTK/Tyr 01 mixture is prepared in 50 mM HEPES pH 7.5, 0.010/BRIJ-35, 10 mM MgCl2, 1 mM EGTA. The final 10 μL Kinase Reaction consists of 1.04-10.4 ng BTK and 2 μM Tyr 01 in 50 mM HEPES pH 7.5, 0.01% BRIJ-35, 10 mM MgCl2, 1 mM EGTA. After the 1 hour Kinase Reaction incubation, 5 μL of a 1:256 dilution of Development Reagent B is added.
Reaction starts by 30-second shaking of mixture consisting of 2.5 μL 4× test compound, 5 μL 2× kinase reaction mixture and 2.5 μL 4×ATP Solution on Bar-coded Corning, low volume NBS, black 384-well plate (Corning Cat. #3676). Then the mixture is incubated for 60-minute at room temperature for the kinase reaction, followed by addition of 5 μL of a 1:1024 dilution of development reagent A and 30-second plate shake. The mixture is then incubated for another 60-minute at room temperature for development reaction. Finally fluorescence is read by plate reader.
The Z′-LYTE assay was carried out with ATP concentration at Km. The scale utilized in Tables 2-6 is as follows: ++ more than 50% inhibition and + less than 50% inhibition.
To determine IC50 of a compound against a kinase, a series of concentrations of the compound were tested for the inhibition. IC50 was calculated by plotting the concentration of compound vs the percentage of inhibition in treated wells using GraphPad Prism 5. […] The scale utilized in Table 7 is as follows: ++ less than 100 nM and + greater than 100 nM.

[1] = compound at 100 nM, ATP concentration at Km

Chain of BTK (Q06187 whole entry): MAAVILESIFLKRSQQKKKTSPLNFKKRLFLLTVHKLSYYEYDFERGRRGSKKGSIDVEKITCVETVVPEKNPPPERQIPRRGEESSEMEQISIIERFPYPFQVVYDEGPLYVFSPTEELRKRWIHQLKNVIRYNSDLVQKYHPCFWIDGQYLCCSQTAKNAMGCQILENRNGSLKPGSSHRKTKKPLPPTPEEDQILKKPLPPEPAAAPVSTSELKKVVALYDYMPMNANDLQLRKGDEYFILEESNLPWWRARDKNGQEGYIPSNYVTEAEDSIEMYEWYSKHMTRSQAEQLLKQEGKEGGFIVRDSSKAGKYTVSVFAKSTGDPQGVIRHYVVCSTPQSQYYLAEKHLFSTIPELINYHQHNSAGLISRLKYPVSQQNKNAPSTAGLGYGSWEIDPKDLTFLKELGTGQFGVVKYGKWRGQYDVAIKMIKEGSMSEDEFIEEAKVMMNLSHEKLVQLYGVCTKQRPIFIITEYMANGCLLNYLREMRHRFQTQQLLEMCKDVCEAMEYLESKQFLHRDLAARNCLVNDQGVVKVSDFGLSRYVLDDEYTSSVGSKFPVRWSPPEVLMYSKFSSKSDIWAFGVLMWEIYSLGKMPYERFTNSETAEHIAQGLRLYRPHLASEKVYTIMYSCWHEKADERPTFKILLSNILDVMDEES

inhibition at 0.1 µM [1] [%] | IC50 [nM] | % Inhibition against BTK [1] | Compound
> 50 | – | – | C=CC(=O)Nc1cccc(-c2cc(-c3cncc(C(F)(F)F)c3)cc3cncnc23)c1 [C055, N-(3-(6-(5-(trifluoromethyl)pyridin-3-yl)quinazolin-8-yl)phenyl)acrylamide]
> 50 | < 100 | – | C=CC(=O)Nc1cccc(-c2cc(-c3ccccc3C#N)cc3cnc(N)nc23)c1 [C091, N-(3-(2-amino-6-(2-cyanophenyl)quinazolin-8-yl)phenyl)acrylamide]
< 50 | – | – | C=CC(=O)Nc1cccc(-c2cc(-c3ccc(C(=O)Nc4ccccn4)c(OC)c3)cc3cncnc23)c1 [C141, 4-(8-(3-acrylamidophenyl)quinazolin-6-yl)-2-methoxy-N-(pyridin-2-yl)benzamide]
> 50 | – | – | C=CC(=O)Nc1cccc(-c2cc(-c3ccc(C(=O)Nc4cc(C5CC5)ccn4)cc3F)c(N)c3cncnc23)c1 [C202, 4-(8-(3-acrylamidophenyl)-5-aminoquinazolin-6-yl)-N-(4-cyclopropylpyridin-2-yl)-3-fluorobenzamide]
> 50 | – | – | C=CC(=O)Nc1cccc(-c2cc(-c3ccc(Oc4ccccn4)cc3Cl)c(N)c3cncnc23)c1 [C203, N-(3-(5-amino-6-(2-chloro-4-(pyridin-2-yloxy)phenyl)quinazolin-8-yl)phenyl)acrylamide]
> 50 | – | – | C=CC(=O)Nc1cccc(-c2cc(-c3ccc(C(=O)Nc4ccccn4)nc3)cc3cncnc23)c1 [C069, 5-(8-(3-acrylamidophenyl)quinazolin-6-yl)-N-(pyridin-2-yl)picolinamide]
< 50 | – | – | C=CC(=O)Nc1cccc(-c2cc(-c3ccc(C(=O)Nc4cc(C5CC5)ccn4)c(OC)c3)cc3cncnc23)c1 [C140, 4-(8-(3-acrylamidophenyl)quinazolin-6-yl)-N-(4-cyclopropylpyridin-2-yl)-2-methoxybenzamide]
> 50 | < 100 | – | C=CC(=O)N1CCC(c2cc(-c3ccc(Oc4ccccc4)cc3)cc3cncnc23)C1 (stereo not drawn) [C048, 1-(3-(6-(4-phenoxyphenyl)quinazolin-8-yl)pyrrolidin-1-yl)prop-2-en-1-one]
> 50 | < 100 | – | C=CC(=O)Nc1cccc(-c2cc(-c3cncc(Cl)c3)cc3cnc(N)nc23)c1 [C103, N-(3-(2-amino-6-(5-chloropyridin-3-yl)quinazolin-8-yl)phenyl)acrylamide]
< 50 | > 100 | – | C=CC(=O)Nc1cccc(-c2cc(-c3ccc(Oc4cc(C(F)(F)F)ccn4)cc3)c(N)c3cncnc23)c1 [C188, N-(3-(5-amino-6-(4-((4-(trifluoromethyl)pyridin-2-yl)oxy)phenyl)quinazolin-8-yl)phenyl)acrylamide]
> 50 | < 100 | – | C=CC(=O)Nc1cccc(-c2cc(-c3ccccc3)cc3cncnc23)c1 [C004, N-(3-(6-phenylquinazolin-8-yl)phenyl)acrylamide]

More lines, now with the values behind:

Compound | inhibition at 0.1 µM [1] [%] | IC50 [nM] | % Inhibition against BTK [1]
C=CC(=O)N1CCC(c2cc(-c3ccc(Oc4cccc(C(F)(F)F)c4)nc3)cc3cncnc23)C1 (stereo not drawn) [C082, 1-(3-(6-(6-(3-(trifluoromethyl)phenoxy)pyridin-3-yl)quinazolin-8-yl)pyrrolidin-1-yl)prop-2-en-1-one] | < 50 | – | –
C=CC(=O)N1CCC(c2cc(-c3ccc(C(=O)Nc4ccccc4)cc3)n3cnccc23)C1 (stereo not drawn) [C054, 4-(5-(1-acryloylpyrrolidin-3-yl)pyrrolo[1,2-c]pyrimidin-7-yl)-N-phenylbenzamide] | < 50 | – | –
C=CC(=O)N1CCC(c2cc(-c3ccc(Oc4cccc(F)c4)nc3)cc3cncnc23)C1 (stereo not drawn) [C095, 1-(3-(6-(6-(3-fluorophenoxy)pyridin-3-yl)quinazolin-8-yl)pyrrolidin-1-yl)prop-2-en-1-one] | < 50 | – | –
C=CC(=O)N1CCC(c2cc(-c3ccc(Oc4ccccc4)cc3)n3cnccc23)C1 (stereo not drawn) [C063, 1-(3-(7-(4-phenoxyphenyl)pyrrolo[1,2-c]pyrimidin-5-yl)pyrrolidin-1-yl)prop-2-en-1-one] | > 50 | – | –
C=CC(=O)N1CCCC(c2nc(-c3ccc(Oc4ncccc4F)c(OC)c3)n3c(N)nccc23)C1 (stereo not drawn) [C232, 1-(3-(5-amino-3-(4-((3-fluoropyridin-2-yl)oxy)-3-methoxyphenyl)imidazo[1,5-c]pyrimidin-1-yl)piperidin-1-yl)prop-2-en-1-one] | – | < 100 | –
CC#CC(=O)N1CCC(c2nc(-c3ccc(C(=O)Nc4ccccn4)cc3)n3c(N)ncnc23)C1 (stereo not drawn) [C205, 4-(4-amino-8-(1-(but-2-ynoyl)pyrrolidin-3-yl)imidazo[1,5-a][1,3,5]triazin-6-yl)-N-(pyridin-2-yl)benzamide] | > 50 | – | –
C=CC(=O)N1CCC(c2cc(-c3ccc(C(=O)Nc4ccc(C(F)(F)F)cn4)cc3)cc3cncnc23)C1 (stereo not drawn) [C142, 4-(8-(1-acryloylpyrrolidin-3-yl)quinazolin-6-yl)-N-(5-(trifluoromethyl)pyridin-2-yl)benzamide] | < 50 | – | –
C=CC(=O)N1CCC(n2c(-c3ccccc3)nc3cnc(N)nc32)C1 (stereo not drawn) [C015, 1-(3-(2-amino-8-phenyl-9H-purin-9-yl)pyrrolidin-1-yl)prop-2-en-1-one] | < 50 | – | –
C=CC(=O)N1CCC(c2cc(-c3ccc(Oc4cc(C(F)(F)F)ccn4)cc3)n3cnccc23)C1 (stereo not drawn) [C143, 1-(3-(7-(4-((4-(trifluoromethyl)pyridin-2-yl)oxy)phenyl)pyrrolo[1,2-c]pyrimidin-5-yl)pyrrolidin-1-yl)prop-2-en-1-one] | < 50 | – | –
C=CC(=O)N1CCC(c2cc(-c3ccc(Oc4ccccc4)cc3)c(N)c3cncnc23)C1 (stereo not drawn) [C192, 1-(3-(5-amino-6-(4-phenoxyphenyl)quinazolin-8-yl)pyrrolidin-1-yl)prop-2-en-1-one] | < 50 | > 100 | –
C=CC(=O)N1CCC(c2cc(-c3ccc(C(=O)Nc4cccnc4)cc3)cc3cncnc23)C1 (stereo not drawn) [C115, 4-(8-(1-acryloylpyrrolidin-3-yl)quinazolin-6-yl)-N-(pyridin-3-yl)benzamide] | < 50 | – | –
C=CC(=O)N1CCC(c2nc(-c3ccc(Oc4ccccn4)cc3)n3c(N)nccc23)C1 (racemic) [C225, (S/R)-1-(3-(5-amino-3-(4-(pyridin-2-yloxy)phenyl)imidazo[1,5-c]pyrimidin-1-yl)pyrrolidin-1-yl)prop-2-en-1-one] | – | < 100 | ++ (more than 50% inhibition)
C=CC(=O)N1CCC(c2nc(-c3ccc(Oc4ccccn4)c(F)c3)n3c(N)nccc23)C1 (stereo not drawn) [C208, 1-(3-(5-amino-3-(3-fluoro-4-(pyridin-2-yloxy)phenyl)imidazo[1,5-c]pyrimidin-1-yl)pyrrolidin-1-yl)prop-2-en-1-one] | > 50 | < 100 | –
C=CC(=O)N1CCCC(c2ccc(-c3ccc(C(=O)Nc4ccccn4)cc3)c3cncnc23)C1 (stereo not drawn) [C037, 4-(8-(1-acryloylpiperidin-3-yl)quinazolin-5-yl)-N-(pyridin-2-yl)benzamide] | < 50 | – | –
